# Results reported in PubChem BioAssay AID686920 (Broad Institute, 2013).
# Tested on: A673 NR0B1-luciferase reporter, viability-normalised luminescence
# Assay: suppressors of NR0B1-promoter luciferase reporter, dose response, EWS/Fli inhibitor project, luciferase luminescence, A673 cells, cherry-pick (AID 686920)
row,SMILES,AC35
1,COC(=O)C[C@@H]1CC[C@@H]2[C@H](COc3ccc(NC(=O)c4ccc(F)c(F)c4)cc3C(=O)N2C)O1,64.7 µM
2,COc1ccc(NS(=O)(=O)c2cc(NC(=O)CNC(=O)c3cccc(OC)c3)ccc2C)cc1,66.3 µM
3,COc1ccc(S(=O)(=O)N2CC[C@@H]3[C@H](CO)Nc4ccc(-c5ccc(C#N)cc5)cc4[C@@H]32)cc1,4.3 µM
4,CCCC[C@@H]1Cc2[nH][nH]c(=O)c2[C@H](c2ccc3ccccc3c2)O1,11.8 µM
5,CCCCNC(=O)C(c1ccc(OCC(=O)OC)c(C(=O)OC)c1)N(CCOC)C(=O)CCCCCN1C(=O)NC(c2ccc(-c3ccccc3)cc2)C(C(=O)OCc2ccccc2)=C1C (configuration not stated),40.4 µM
6,COc1ccc(Cl)cc1S(=O)(=O)Nc1ccc2c(c1)n(C)c(=O)n2C,31.3 µM
7,CCn1c(C)cc(C(=O)CN2C(=O)c3ccccc3S2(=O)=O)c1C,1.23 µM
8,C[C@@H]1CN([C@@H](C)CO)C(=O)c2cc(NS(=O)(=O)c3ccc(Cl)cc3)ccc2O[C@@H]1CN(C)Cc1ccc(C(=O)Nc2ccccc2N)cc1,7.36 µM
9,Cc1ccc2c(=O)n3c(nc2c1)C(Cc1ccc(O)cc1)NC(=O)c1cc2ccccc2cc1-3 (configuration not stated),6.25 µM
10,COc1ccccc1NC(=O)N1CCCCN2[C@H](CO)[C@H](c3ccc(-c4cccc(C)c4)cc3)[C@H]2C1,8.3 µM
11,COc1cccc(-c2cccc(-c3nc(C(=O)NCC(F)(F)F)cc4c3[C@H](CCO)N([S@@](=O)C(C)(C)C)C4)c2)c1,3.19 µM
12,COc1cc(/C=N/NS(=O)(=O)c2ccc3ccccc3c2)ccc1OCc1ccc(C(=O)O)cc1,2.91 µM
13,C[C@@H]1CN([C@H](C)CO)C(=O)CCCn2nncc2CO[C@H]1CN(C)Cc1ccc(Oc2ccccc2)cc1,34.1 µM
14,COc1ccc(/C=C2\SC(=S)N(CCCC(=O)NC3CCCC3)C2=O)cc1OC,38.5 µM
15,O=C(CN1C(=O)c2ccccc2S1(=O)=O)c1ccc(F)cc1,3.98 µM
16,Cc1cccc(/C=C(\c2nc3ccccc3[nH]2)S(=O)(=O)c2ccccc2)c1,5.46 µM
17,O=c1c2ccccc2oc2cc(C#CC3(O)CCCCC3)ccc12,4.33 µM
18,CC1=NC(=O)C(N=Nc2cccc(C(=O)O)c2)N1c1ccccc1 (configuration not stated),6.99 µM
19,O=C1Nc2cc(C(=O)NCCN3CCCCCC3)ccc2S/C1=C\c1ccccc1,11.6 µM
20,Oc1c(Cl)cc(Cl)c(Cl)c1Cc1c(O)c(Cl)cc(Cl)c1Cl,35.3 µM
21,COC(=O)C[C@@H]1CC[C@@H]2[C@H](COc3ccc(NC(=O)c4ccccc4)cc3C(=O)N2C)O1,53.4 µM
22,CCNC(=O)c1cc2c(c(-c3cccc(-c4cccc(OC)c4)c3)n1)[C@H](CCO)N([S@@](=O)C(C)(C)C)C2,6.78 µM
23,Cc1c(Cc2ccc3c(c2)OCO3)sc(NC(=O)C(C)(C)C)c1C#N,9.84 µM

row,SMILES,AC35
1,CCN1CCN(/C=N/c2nc3c(s2)CCCC3)CC1,7.97 µM
2,Cc1ccc(S(=O)(=O)Nc2ccc3c(c2)C(=O)N([C@@H](C)CO)C[C@@H](C)[C@H](CN(C)Cc2ccc(C(F)(F)F)cc2)OCCCC[C@H](C)O3)cc1,7.44 µM
3,Cc1ccc(C(=O)O/N=C(\N)c2ccccn2)cc1,9.92 µM
4,COCCCNc1ccn2nc(-c3ccccc3)cc2n1,10.1 µM
5,CN(C)c1ccc(/C=N/Nc2nc3ccccc3o2)cc1,5.35 µM
6,O=C(c1nnsc1S(=O)c1ccc(Cl)cc1)N1CCOCC1 (configuration not stated),14.1 µM
7,O=C(NCc1cccnc1)C1Cc2c(-c3ccc(Cl)cc3)ccnc2O1 (configuration not stated),6.04 µM
8,O=c1ccc2ccccc2c2ccccc12,8.15 µM
9,CCCCNC1=CC(=O)C(=O)c2ccccc21,6.17 µM
10,C(=N\Nc1nc2ccccc2s1)/c1ccccn1,0.77 µM
11,C[C@H](CO)N1C[C@H](C)[C@H](CN(C)Cc2ccc(Oc3ccccc3)cc2)Oc2ccc(NC(=O)CCCCCC(=O)Nc3ccccc3N)cc2CC1=O,4.15 µM
12,CCc1ccc2oc(C(=O)N3CCN(c4ccccc4OC)CC3)cc(=O)c2c1,10.7 µM
13,C[C@H](CO)N1C[C@H](C)[C@H](CN(C)Cc2ccccc2)Oc2ccc(NC(=O)CCCCCC(=O)Nc3ccccc3N)cc2CC1=O,5.93 µM
14,Cc1nc(N)nc(N)c1-c1ccc(Cl)c(Cl)c1,0.495 µM
15,O=C(Sc1cccc2cccnc12)c1ccccc1Br,16.6 µM
16,C[C@H](CO)N1C[C@H](C)[C@H](CN(C)Cc2ccc(C(=O)Nc3ccccc3N)cc2)Oc2ccc(N(C)C)cc2C1=O,11.7 µM
17,CC(C)(C)c1ccc(Cn2c(=O)cnc3ccccc32)cc1,13.2 µM
18,C[C@@H]1CN([C@@H](C)CO)C(=O)c2cc(N(C)C)ccc2O[C@H]1CN(C)Cc1ccc(C(=O)Nc2ccccc2N)cc1,12.7 µM
19,C[C@@H]1CN([C@H](C)CO)C(=O)c2cc(NC(=O)Nc3ccccc3)ccc2O[C@@H]1CN(C)Cc1ccc(C(=O)Nc2ccccc2N)cc1,8.74 µM
20,C[C@@H]1O[C@@H](O[C@H]2C[C@@H](O)[C@]3(CO)[C@H]4[C@H](O)C[C@]5(C)[C@@H](C6COC(=O)C6)CC[C@]5(O)[C@@H]4CC[C@]3(O)C2)[C@H](O)[C@H](O)[C@H]1O (some centres not stated),1.24 µM
21,C(=Cc1nc2ccccc2o1)c1ccc2c(c1)OCO2,4.5 µM
22,C[C@@H]1CN([C@@H](C)CO)S(=O)(=O)c2ccc(C#CC(C)(C)O)cc2O[C@H]1CN(C)Cc1ccc(-c2ccccc2)cc1,2.8 µM
23,Cc1nn(-c2ccc(F)cc2)c2nc(N)c(C#N)c(-c3ccc(O)c(O)c3)c12,22.2 µM

row,SMILES,AC35
1,O=C(NCc1ccc(F)cc1)N1[C@H]2CC[C@@H]1C=C(c1ccc(F)cc1OCc1ccccc1)C2,9.93 µM
2,Nc1ccc(-c2cc3ccccc3oc2=O)cc1,0.208 µM
3,C=C1C(=O)OC2C1CCC(C)C1(O)C=CC(=O)C21C (configuration not stated),11.5 µM
4,CCOc1ccc(-c2noc(CCC(=O)O)n2)cc1,1.17 µM
5,COc1ccc(-c2nc3c(s2)CCc2onc(-c4ccc(OC)cc4)c2-3)cc1,7.59 µM
6,COc1ccc(CNc2ncc(-c3ccc(F)cc3)n2C)c2ccccc12,6.93 µM
7,C[C@@H]1O[C@@H](O[C@@H]2C=C3CC[C@@H]4C(CC[C@]5(C)[C@@H](c6ccc(=O)oc6)CC[C@]45O)[C@@]3(C)CC2)[C@H](O)[C@H](O)[C@H]1O (some centres not stated),< 0.03 µM
8,O=c1[nH]c(=O)n([C@H]2C[C@H](O)[C@@H](CO)O2)cc1F,2.63 µM
9,N#C[C@H]1N[C@H](CO)[C@H]1c1ccc(C#Cc2ccccc2F)cc1,0.137 µM
10,Cc1ccc(OCCNC(=O)c2cccc(S(=O)(=O)NCc3ccccc3)c2)cc1,3.98 µM
11,C[C@@H]1O[C@@H](O[C@H]2C[C@@H](O)[C@]3(CO)[C@@H]4C(CC[C@]3(O)C2)[C@@]2(O)CC[C@H](C3COC(=O)C3)[C@@]2(C)C[C@H]4O)[C@H](O)[C@H](O)[C@H]1O (some centres not stated),1.97 µM
12,Cc1ccc(/C=N/Nc2ccc3ccccc3n2)o1,4.21 µM
13,Cc1c(CCOC(=O)CC23CC4CC(CC(C)(C4)C2)C3)sc[n+]1CC(=O)c1ccccc1,16.9 µM
14,S=c1[nH]nc(-c2cc(-c3ccccc3)n[nH]2)n1/N=C/C(Br)=C/c1ccccc1,10.4 µM
15,C/C(=N\OCc1cccc(C(=O)O)c1)c1ccc(Cl)cc1,0.832 µM
16,CCc1ccc(/C=C2\SC(=S)N(CCCC(=O)N3CCN(C)CC3)C2=O)cc1,21.3 µM
17,COc1ccc(C2=Nn3c(nnc3-c3ccccc3F)SC2)cc1OC1CCOC1 (configuration not stated),4.37 µM
18,C[C@@H]1CN([C@@H](C)CO)S(=O)(=O)c2ccc(C#CCN(C)C)cc2O[C@@H]1CN(C)Cc1ccncc1,60.2 µM
19,Nc1nc(=S)c2ncn([C@@H]3O[C@H](CO)[C@@H](O)[C@H]3O)c2[nH]1,4.88 µM
20,Cc1ccsc1/C=N/Nc1ccc(C(=O)O)cc1,3.1 µM
21,CCCCC[C@H](C)N1C[C@H](COCc2ccccc2)Oc2cc(N3CC[C@@H](N(C)C)C3)ccc2S1(=O)=O,34.7 µM
